Measurements: patent US20050032841A1, “Therapeutic compositions and methods of treating glycolipid storage related disorders” (priority 1999, published 2005)
Several values for one entry are separate records, joined by “and”; a condition that tells them apart may be missing. Equal values may be shown once.

Tests used:
GSL synthesis = details: compared with NB-DNJ; cited from earlier work
α-glucosidase I and II = details: cited from earlier work
[1] = Serum enzyme activity and half life of Ceredase after i.v. injection in mice, with or without NB-DNJ pre-treatment; assay type: in vivo; design: unit not given here; details: mice treated with NB-DNJ 4800 mg/kg/day for 5 weeks
Procedure: A group of mice were treated with NB-DNJ at 4800 mg/kg/day for 5 weeks. After a low intravenous dose (5-10 U/kg) of Ceredase™ (Genzyme Corporation) administered as a single injection via the tail vein, serum enzyme activity was measured by taking sequential serum samples from the tail vein to monitor enzyme activity over time. Ceredase™ is a modified form of β glucocerebrosidase.

Sandhoff mice = assay: Survival of Sandhoff mice treated with NB-DNJ and/or bone marrow transplantation; assay type: in vivo; details: BMT at two weeks of age, NB-DNJ 600 mg/kg/day from 9.5-11 weeks of age
MPS IIIA mice = assay: Murine model of MPS IIIA: brain immunocytochemistry (GM2, GM3) and auto-fluorescent material; assay type: in vivo
Description: Colonies of mutant mice expressing the MPS IIIA phenotype have been described, and have been validated by a number of criteria as an authentic model of the disease (Stanley, P et al (1999) Glycobiology 9: 1389-1396). MPS IIIA mice display clinical signs of the disease around 6 months of age with decreased activity, scruffy coat, abdominal distention, hunched posture and waddling gait. […] Death results by 18 months or less.
The brains of MPS mice are grossly normal. […] White matter and Purkinje cells display axonal spheroids. Anti-heparan sulfate immunostaining indicates accumulation of heparan sulfate fragments in the cerebral cortex of MPS IIIA animals.
MPS IIIA mice were treated with 1200 mg/kg/day, beginning at 4 weeks of age, with NB-DNJ. Brain samples from animals were taken at 8 weeks of age (4 weeks of treatment with NB-DNJ) and subjected to immunocytochemistry with an anti-GM2 ganglioside-specific monoclonal antibody. […] Upper cortex, ii. Lower cortex; B: NB-DNJ Treated, i. Upper cortex, ii. Lower cortex.
The hippocampus (CA4-Dentate Gyrus) of the MPS IIIA animals was also examined for staining by a GM2 Ganglioside-specific monoclonal antibody.
Cerebral cortex samples from animals were also taken at 40 weeks of age (36 weeks of treatment with NB-DNJ) and subjected to immunocytochemistry with an anti-GM3 ganglioside-specific monoclonal antibody. Anti-GM2 staining was similar to anti-GM3 staining in both treated and untreated animals, respectively (data not shown).
The brains of animals affected by MPS IIIA, as well as some other of the mucopolysaccharidoses, store heterogeneous auto-fluorescent material in addition to glycolipids. Thus, the cerebral cortex of MPS IIIA animals either left untreated or treated for 36 weeks with NB-DNJ were also examined for the presence of auto-fluorescent material.

[2] = test system: in vitro model of Gaucher disease; details: cited from earlier work
[3] = test system: mouse model of Tay-Sachs disease; details: asymptomatic Tay-Sachs mouse model; cited from earlier work

Compound | Inhibition of GSL synthesis in vitro (GSL synthesis) | Inhibition of α-glucosidase I and II (α-glucosidase I and II) | Peak Activity of Ceredase in serum, mean ± sem ([1]; Ceredase 5-10 U/kg i.v., group mean) | Peak Activity of Ceredase in serum ([1]; Ceredase 5-10 U/kg single i.v. injection, individual mice) | Survival (longest survivor) (Sandhoff mice) [days] | Pathological features in the model of MPS IIIA (MPS IIIA mice; NB-DNJ 1200 mg/kg/day) | Glycolipid storage in neuronal cells (MPS IIIA mice; NB-DNJ 1200 mg/kg/day from 4 weeks of age, anti-GM2/GM3 immunocytochemistry) | Storage of auto-fluorescent material in cerebral cortex (MPS IIIA mice; NB-DNJ 1200 mg/kg/day, 36 weeks of treatment) | Storage in in vitro model of Gaucher disease [2] | GM2 accumulation in the brain and associated neuropathology [3]
CCCCN1C[C@H](O)[C@@H](O)[C@@H](O)[C@H]1CO [NB-DGJ, N-butyldeoxygalactonojirimycin] | as effectively as NB-DNJ | does not inhibit | – | – | – | – | – | – | – | –
CCCCN1C[C@H](O)[C@@H](O)[C@H](O)[C@H]1CO [NB-DNJ, N-butyldeoxynojirimycin] | – | – | 27.4 ± 7.2 | 13.9 and 32.1 and 24.1 and 13.1 and 21.0 and 68.3 and 19.2 | 170 | markedly reduces the pathological features | markedly reduced | reduced the storage of auto-fluorescent material | shown to prevent storage | reduce GM2 accumulation in the brain and prevent the neuropathology
